Measurements reported in PubChem BioAssay AID621 (Sanford-Burnham Center for Chemical Genomics, 2007).

Biological target: Bcl-2-related protein A1 (Mus musculus) (UniProt Q07440)
Test: small-molecule antagonists of Bfl-1/BH3 interaction – biochemical, TR-FRET, mouse Bfl-1, confirmation (AID 621)
Conditions: TR-FRET Bfl-1 BH3 peptide binding displacement

Chain of Bcl-2-related protein A1 (Mus musculus) (Q07440 whole entry, looked up): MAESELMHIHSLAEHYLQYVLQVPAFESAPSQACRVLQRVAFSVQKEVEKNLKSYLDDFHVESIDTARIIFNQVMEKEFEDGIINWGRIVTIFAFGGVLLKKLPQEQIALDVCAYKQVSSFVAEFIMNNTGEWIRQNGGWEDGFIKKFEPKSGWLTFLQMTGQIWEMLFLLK

| IC50 | SMILES |
| --- | --- |
| 3.49 µM | Nc1ccc2ncccc2c1N |
| 14.5 µM | CCn1c(SCC(=O)O)nc2sc3c(c2c1=O)CCC3 |
